# Literature values in PMC6721965 (Biochimica et biophysica acta. Biomembranes, 2019).
# Tested on: bacteria
# Settings: classification of parent peptides used for hybrid design; ref [4]-[8]
row,Sequence,Primary cellular localization pattern
1,KGRGKQGGKVRWKAKTRSS [parasin],membrane localization/permeabilization
2,ARDNKKTRIWPRHLQLAVRN [DesHDAP1],membrane translocation
3,"TRSSRAGLQWPVGRVHRLLRK [buforin II (BF2), buforin II]",membrane translocation
4,GIGKWLHSAKKFGKAFVGEIMNS [magainin 2],membrane localization/permeabilization
